Measurements reported in patent US20090253669A1, “Substituted Sulfonamide Compounds” (GRUENENTHAL GmbH, priority 2008, published 2009).

Experiments:
[1] = target: T1, B1R receptor of the rat (rB1R) (Rattus norvegicus, UniProt P97583); experiment: FLIPR Ca2+ assay on rB1R-transfected CHO K1 cells, antagonistic action; assay type: cell-based; conditions: CHO-K1, 10 μM test substance; agonist Des-Arg9-bradykinin 100 nM; % of maximum achievable inhibition; read-out: rB1R [10 μM] % inhibition
T1 construct: host or cells: CHO K1 cells
T1 sequence (P97583 1-337): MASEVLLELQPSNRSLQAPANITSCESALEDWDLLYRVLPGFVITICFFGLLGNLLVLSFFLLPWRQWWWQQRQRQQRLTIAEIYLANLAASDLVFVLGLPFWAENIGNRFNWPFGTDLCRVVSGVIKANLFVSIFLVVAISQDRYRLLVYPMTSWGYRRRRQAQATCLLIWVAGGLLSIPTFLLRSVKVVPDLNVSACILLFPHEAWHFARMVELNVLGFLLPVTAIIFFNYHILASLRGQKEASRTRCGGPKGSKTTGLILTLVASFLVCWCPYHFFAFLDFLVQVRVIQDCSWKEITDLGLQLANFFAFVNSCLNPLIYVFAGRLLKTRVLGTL

[2] = target: T2, human B1R receptor (hB1R) (Homo sapiens, UniProt P46663); experiment: FLIPR Ca2+ assay on hB1R-transfected CHO K1 cells, antagonistic action; assay type: cell-based; conditions: CHO-K1, 10 μM test substance; agonist Lys-Des-Arg9-bradykinin 0.5 nM; % of maximum achievable inhibition; read-out: hB1R [10 μM] % inhibition
T2 construct: host or cells: CHO K1 cells
T2 sequence (P46663 1-353): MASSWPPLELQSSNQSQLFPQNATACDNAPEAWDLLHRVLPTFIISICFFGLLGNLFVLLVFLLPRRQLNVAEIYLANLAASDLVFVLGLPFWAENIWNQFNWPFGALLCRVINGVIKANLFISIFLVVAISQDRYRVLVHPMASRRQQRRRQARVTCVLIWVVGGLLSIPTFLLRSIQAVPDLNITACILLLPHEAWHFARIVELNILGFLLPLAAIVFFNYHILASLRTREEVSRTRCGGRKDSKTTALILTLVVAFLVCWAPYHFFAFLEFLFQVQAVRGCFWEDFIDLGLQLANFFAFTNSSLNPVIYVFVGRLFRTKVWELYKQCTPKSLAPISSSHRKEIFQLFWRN

| SMILES | inhibition at 10 µM [1] [%] | inhibition at 10 µM [2] [%] |
| --- | --- | --- |
| Cc1cc(S(=O)(=O)N2CCCCC2CCC(=O)N2CCC(CCc3ccccc3)(N(C)C)CC2)c(C)cc1Cl (stereo not shown) [Compound 137, 3-(1-(4-chloro-2,5-dimethylphenylsulfonyl)piperidin-2-yl)-1-(4-(dimethylamino)-4-phenethylpiperidin-1-yl)propan-1-one] | 30 | 104 |
| O=C(COC1CCCN(S(=O)(=O)c2c(Cl)cc(Cl)cc2Cl)C1)NC1CCC(c2ccccc2)(N2CCCC2)CC1 (stereo not shown) [Compound 194, N-(4-phenyl-4-(pyrrolidin-1-yl)cyclohexyl)-2-(1-(2,4,6-trichlorophenylsulfonyl)piperidin-3-yloxy)acetamide] | 33 | 96 |
| COc1cc(C)c(S(=O)(=O)N2CCC(OCC(=O)N(C)CC3CCC(CCc4ccccc4)(N4CCN(C)CC4)CC3)C2)c(C)c1 (stereo not shown) [Compound 177, 2-(1-(4-methoxy-2,6-dimethylphenylsulfonyl)pyrrolidin-3-yloxy)-N-methyl-N-((4-(4-methylpiperazin-1-yl)-4-phenethylcyclohexyl)methyl)acetamide] | 76 | 103 |
| CN(CCC1CCC(CCc2ccccc2)(N(C)C)CC1)C(=O)CC1CCCCN1S(=O)(=O)c1cccc(C(F)(F)F)c1 (stereo not shown) [Compound 76, N-(2-(4-(dimethylamino)-4-phenethylcyclohexyl)ethyl)-N-methyl-2-(1-(3-(trifluoromethyl)phenylsulfonyl)piperidin-2-yl)acetamide] | 99 | 98 |
| COc1cc(C)c(S(=O)(=O)N(C)CCOCC(=O)N(C)CCC2CCC(c3cccnc3)(N(C)C)CC2)c(C)c1 (stereo not shown) [Compound 207, N-(2-(4-(Dimethylamino)-4-(pyridin-3-yl)cyclohexyl)ethyl)-2-(2-(4-methoxy-N,2,6-trimethylphenylsulfonamido)ethoxy)-N-methylacetamide] | 101 | 100 |
| O=C(CC(NS(=O)(=O)c1ccc2ccccc2c1)c1ccccc1)N1CCC(c2ccccc2)(N2CCN(c3ccncc3)CC2)CC1 (stereo not shown) [Compound 98, N-(3-oxo-1-phenyl-3-(4-phenyl-4-(4-(pyridin-4-yl)piperazin-1-yl)piperidin-1-yl)propyl)naphthalene-2-sulfonamide] | 91 | 72 |
| O=C(COCC1CCCCN1S(=O)(=O)c1c(Cl)cc(Cl)cc1Cl)NC1CCC(c2ccccc2)(N2CCCC2)CC1 (stereo not shown) [Compound 142, N-(4-phenyl-4-(pyrrolidin-1-yl)cyclohexyl)-2-((1-(2,4,6-trichlorophenylsulfonyl)piperidin-2-yl)methoxy)acetamide] | 113 | 92 |
| COc1cc(C)c(S(=O)(=O)N(C)CCOCC(=O)N2CCC(c3ccccc3)(N3CCN(C)CC3)CC2)c(C)c1 [Compound 41, 4-methoxy-N,2,6-trimethyl-N-(2-(2-(4-(4-methylpiperazin-1-yl)-4-phenylpiperidin-1-yl)-2-oxoethoxy)ethyl)benzenesulfonamide] | 101 | 103 |
| Cc1cc(S(=O)(=O)N2CCCCC2CCC(=O)N(C)CC2CCC(c3ccccc3)(N3CCCC3)CC2)c(C)cc1Cl (stereo not shown) [Compound 140, 3-(1-(4-chloro-2,5-dimethylphenylsulfonyl)piperidin-2-yl)-N-methyl-N-((4-phenyl-4-(pyrrolidin-1-yl)cyclohexyl)methyl)propanamide] | 21 | 103 |
| CN1CCN(C2(Cc3ccccc3)CCC(CN(C)C(=O)COCC3CCCCN3S(=O)(=O)c3c(Cl)cc(Cl)cc3Cl)CC2)CC1 (stereo not shown) [Compound 162, N-((4-benzyl-4-(4-methylpiperazin-1-yl)cyclohexyl)methyl)-N-methyl-2-((1-(2,4,6-trichlorophenylsulfonyl)piperidin-2-yl)methoxy)acetamide] | 94 | 102 |
| O=C(COC1CCN(S(=O)(=O)c2c(Cl)cc(Cl)cc2Cl)C1)NC1CCC(c2ccccc2)(N2CCCC2)CC1 (stereo not shown) [Compound 178, N-(4-phenyl-4-(pyrrolidin-1-yl)cyclohexyl)-2-(1-(2,4,6-trichlorophenylsulfonyl)pyrrolidin-3-yloxy)acetamide] | 76 | 53 |
| COc1cc(C)c(S(=O)(=O)N2CCCCC2COCC(=O)N(C)CC2CCC(CCc3ccccc3)(N3CCCC3)CC2)c(C)c1 (stereo not shown) [Compound 51, 2-((1-(4-methoxy-2,6-dimethylphenylsulfonyl)piperidin-2-yl)methoxy)-N-methyl-N-((4-phenethyl-4-(pyrrolidin-1-yl)cyclohexyl)methyl)acetamide] | 100 | 102 |
| CN1CCN(C2(CCc3ccccc3)CCC(CN(C)C(=O)COCC3CCCN3S(=O)(=O)c3c(Cl)cc(Cl)cc3Cl)CC2)CC1 (stereo not shown) [Compound 172, N-methyl-N-((4-(4-methylpiperazin-1-yl)-4-phenethylcyclohexyl)methyl)-2-((1-(2,4,6-trichlorophenylsulfonyl)pyrrolidin-2-yl)methoxy)acetamide] | 79 | 98 |
| CN(CCCC1CCC(CCc2ccccc2)(N2CCCC2)CC1)C(=O)CC(NS(=O)(=O)c1ccc2ccccc2c1)c1ccccc1 (stereo not shown) [Compound 79, N-methyl-3-(naphthalene-2-sulfonamido)-N-(3-(4-phenethyl-4-(pyrrolidin-1-yl)cyclohexyl)propyl)-3-phenylpropanamide] | 99 | 102 |
| COc1cc(C)c(S(=O)(=O)N2CCCC2COCC(=O)NC2CCC(Cc3ccccc3)(N3CCCC3)CC2)c(C)c1 (stereo not shown) [Compound 151, N-(4-benzyl-4-(pyrrolidin-1-yl)cyclohexyl)-2-((1-(4-methoxy-2,6-dimethylphenylsulfonyl)pyrrolidin-2-yl)methoxy)acetamide] | 103 | 90 |
| CN(C)C1(CCc2ccccc2)CCN(C(=O)CC2CCCCN2S(=O)(=O)c2cccc(C(F)(F)F)c2)CC1 (stereo not shown) [Compound 71, 1-(4-(dimethylamino)-4-phenethylpiperidin-1-yl)-2-(1-(3-(trifluoromethyl)phenylsulfonyl)piperidin-2-yl)ethanone] | 99 | 92 |
| COc1cc(C)c(S(=O)(=O)N2CCCCC2COCCC(=O)N2CCC(c3cccc(F)c3)(N3CCN(C)CC3)CC2)c(C)c1 (stereo not shown) [Compound 226, 1-(4-(3-Fluorophenyl)-4-(4-methylpiperazin-1-yl)piperidin-1-yl)-3-((1-(4-methoxy-2,6-dimethylphenylsulfonyl)piperidin-2-yl)methoxy)propan-1-one] | 100 | 100 |
| COc1cc(C)c(S(=O)(=O)N2CCCC(COCC(=O)N(C)CC3CCC(CCc4ccccc4)(N4CCN(C)CC4)CC3)C2)c(C)c1 (stereo not shown) [Compound 182, 2-((1-(4-methoxy-2,6-dimethylphenylsulfonyl)piperidin-3-yl)methoxy)-N-methyl-N-((4-(4-methylpiperazin-1-yl)-4-phenethylcyclohexyl)methyl)acetamide] | 67 | 106 |
| COc1cc(C)c(S(=O)(=O)N(C)CCOCC(=O)NC2CCC(Cc3ccc(F)cc3)(N(C)C)CC2)c(C)c1 (stereo not shown) [Compound 9, N-(4-(dimethylamino)-4-(4-fluorobenzyl)cyclohexyl)-2-(2-(4-methoxy-N,2,6-trimethylphenylsulfonamido)ethoxy)acetamide] | 95 | 104 |
| CN1CCN(C2(c3ccccc3)CCN(C(=O)CC3CCCCN3S(=O)(=O)c3cccc(C(F)(F)F)c3)CC2)CC1 (stereo not shown) [Compound 64, 1-(4-(4-methylpiperazin-1-yl)-4-phenylpiperidin-1-yl)-2-(1-(3-(trifluoromethyl)phenylsulfonyl)piperidin-2-yl)ethanone] | 100 | 84 |
| CN1CCN(C2(c3ccc(F)cc3)CCN(C(=O)CC(NS(=O)(=O)c3ccc4ccccc4c3)c3ccccc3)CC2)CC1 (stereo not shown) [Compound 96, N-(3-(4-(4-fluorophenyl)-4-(4-methylpiperazin-1-yl)piperidin-1-yl)-3-oxo-1-phenylpropyl)naphthalene-2-sulfonamide] | 91 | 100 |
| CN(CCOCC(=O)NC1CCC(Cc2ccccc2)(N2CCCC2)CC1)S(=O)(=O)c1ccc(Cl)cc1Cl (stereo not shown) [Compound 193, N-(4-benzyl-4-(pyrrolidin-1-yl)cyclohexyl)-2-(2-(2,4-dichloro-N-methylphenylsulfonamido)ethoxy)acetamide] | 34 | 93 |
| COc1cc(C)c(S(=O)(=O)N(C)CCOCC(=O)N(C)CCC2CCC(Cc3ccccc3)(N3CCCC3)CC2)c(C)c1 (stereo not shown) [Compound 39, N-(2-(4-benzyl-4-(pyrrolidin-1-yl)cyclohexyl)ethyl)-2-(2-(4-methoxy-N,2,6-trimethylphenylsulfonamido)ethoxy)-N-methylacetamide] | 101 | 105 |
